Measured values as given in patent publication US12077503B2, “Substituted cyclic amides and their use as herbicides” (FMC CORPORATION, priority 2015, dated 2024).

Tests used:
Format in all cases: in vivo
rice (Oryra sativa) = assay: Test B flooded paddy test; settings: Flood, 250 g ai/ha; 0 to 100 scale where 0 is no effect and 100 is complete control; 13 to 15 d
Protocol: (§1) Plant species in the flooded paddy test selected from rice (Oryra sativa), sedge, umbrella (small-flower umbrella sedge, Cyperus difformis), ducksalad (Heteranthera limosa), and barnyardgrass (Echinochloa crus-galli) were grown to the 2-leaf stage for testing. At time of treatment, test pots were flooded to 3 cm above the soil surface, treated by application of test compounds directly to the paddy water, and then maintained at that water depth for the duration of the test. Treated plants and controls were maintained in a greenhouse for 13 to 15 d, after which time all species were compared to controls and visually evaluated. Plant response ratings, summarized in Table B, are based on a scale of 0 to 100 where 0 is no effect and 100 is complete control. A dash (-) response means no test result.

[1] = tested on: sedge, umbrella (small-flower umbrella sedge, Cyperus difformis); assay: Test B flooded paddy test; settings: Flood, 250 g ai/ha; 0 to 100 scale where 0 is no effect and 100 is complete control; 13 to 15 d
Protocol: as §1

[2] = tested on: ducksalad (Heteranthera limosa); assay: Test B flooded paddy test; settings: Flood, 250 g ai/ha; 0 to 100 scale where 0 is no effect and 100 is complete control; 13 to 15 d
Protocol: as §1

[3] = tested on: barnyardgrass (Echinochloa crus-galli); assay: Test B flooded paddy test; settings: Flood, 250 g ai/ha; 0 to 100 scale where 0 is no effect and 100 is complete control; 13 to 15 d
Protocol: as §1

[4] = tested on: giant foxtail (Setaria faberii); assay: Test A preemergence; settings: for Plant response rating, Foxtail, Giant: 125 g ai/ha; for Foxtail, Giant plant response rating (0 to 100 scale, 0 is no effect, 100 is complete control): 500 g ai/ha, visual injury approx. 10 d
From the text: (§2) Seeds of plant species selected from barnyardgrass (Echinochloa crus-galli), Kochia (Kochia scoparia), ragweed (common ragweed, Ambrosia elatior), ryegrass, Italian (Italian ryegrass, Lolium multiflorum), crabgrass, large (Digitaria sanguinalis), giant foxtail (Setaria faberii), green foxtail (Setaria viridis), morningglory (Ipomoea spp.), pigweed (Amaranthus retroflexus), velvetleaf (Abutilon theophrasti), wheat (Triticum aestivum), and corn (Zea mays) were planted into a blend of loam soil and sand and treated preemergence with a directed soil spray using test chemicals formulated in anon-phytotoxic solvent mixture which included a surfactant.
(§3) At the same time, plants selected from these crop and weed species and also blackgrass (Alopecurus myosuroides), and Galium (catchweed bedstraw, Galium aparine) were planted in pots containing the same blend of loam soil and sand and treated with postemergence applications of test chemicals formulated in the same manner. Plants ranged in height from 2 to 10 cm and were in the one- to two-leaf stage for the postemergence treatment. Treated plants and untreated controls were maintained in a greenhouse for approximately 10 d, after which time all treated plants were compared to untreated controls and visually evaluated for injury. Plant response ratings, summarized in Table A, are based on a 0 to 100 scale where 0 is no effect and 100 is complete control. A dash (-) response means no test result.

[5] = tested on: pigweed (Amaranthus retroflexus); assay: Test A preemergence; settings: Preemergence; for Plant response rating, Pigweed: 125 g ai/ha, visual injury after approximately 10 d, 0 to 100 scale where 0 is no effect and 100 is complete control; for Pigweed plant response rating (0 to 100 scale, 0 is no effect, 100 is complete control): 500 g ai/ha, visual injury approx. 10 d
From the text: as §2, §3

[6] = tested on: ragweed (common ragweed, Ambrosia elatior); assay: Test A preemergence; settings: Preemergence; for Plant response rating, Ragweed: 125 g ai/ha, visual injury after approximately 10 d, 0 to 100 scale where 0 is no effect and 100 is complete control; for Ragweed plant response rating (0 to 100 scale, 0 is no effect, 100 is complete control): 500 g ai/ha, visual injury approx. 10 d
From the text: as §2, §3

Kochia (Kochia scoparia) [7] = assay: Test A preemergence; settings: for Plant response rating, Kochia: 125 g ai/ha; for Kochia plant response rating (0 to 100 scale, 0 is no effect, 100 is complete control): 500 g ai/ha, visual injury approx. 10 d
From the text: as §2, §3

[8] = tested on: ryegrass, Italian (Italian ryegrass, Lolium multiflorum); assay: Test A preemergence; settings: Preemergence; for Plant response rating, Ryegrass, Italian: 125 g ai/ha, visual injury after approximately 10 d, 0 to 100 scale where 0 is no effect and 100 is complete control; for Ryegrass, Italian plant response rating (0 to 100 scale, 0 is no effect, 100 is complete control): 500 g ai/ha, visual injury approx. 10 d
From the text: as §2, §3

[9] = tested on: barnyardgrass (Echinochloa crus-galli); assay: Test A preemergence; settings: for Plant response rating, Barnyardgrass: 125 g ai/ha; for Barnyardgrass plant response rating (0 to 100 scale, 0 is no effect, 100 is complete control): 500 g ai/ha, visual injury approx. 10 d
From the text: as §2, §3

[10] = tested on: giant foxtail (Setaria faberii); assay: Test A postemergence; settings: for Foxtail, Giant plant response rating: 125 g ai/ha, postemergence, visual injury rating on 0 to 100 scale (0 no effect, 100 complete control), approx. 10 d; for Plant response rating, Foxtail, Giant: Postemergence, 500 g ai/ha, 0 to 100 scale where 0 is no effect and 100 is complete control
From the text: as §2, §3

[11] = tested on: wheat (Triticum aestivum); assay: Test A postemergence; settings: for Wheat plant response rating: 125 g ai/ha, postemergence, visual injury rating on 0 to 100 scale (0 no effect, 100 complete control), approx. 10 d; for Plant response rating, Wheat: Postemergence, 500 g ai/ha, 0 to 100 scale where 0 is no effect and 100 is complete control
From the text: as §2, §3

corn (Zea mays) = assay: Test A postemergence; settings: for Corn plant response rating: 125 g ai/ha, visual injury rating on 0 to 100 scale (0 no effect, 100 complete control), approx. 10 d; for Plant response rating, Corn: 500 g ai/ha
From the text: as §2, §3

[12] = tested on: blackgrass (Alopecurus myosuroides); assay: Test A postemergence; settings: for Blackgrass plant response rating: 125 g ai/ha, visual injury rating on 0 to 100 scale (0 no effect, 100 complete control), approx. 10 d; for Plant response rating, Blackgrass: 500 g ai/ha
From the text: as §2, §3

[13] = tested on: pigweed (Amaranthus retroflexus); assay: Test A postemergence; settings: for Pigweed plant response rating: 125 g ai/ha, postemergence, visual injury rating on 0 to 100 scale (0 no effect, 100 complete control), approx. 10 d; for Plant response rating, Pigweed: Postemergence, 500 g ai/ha, 0 to 100 scale where 0 is no effect and 100 is complete control
From the text: as §2, §3

[14] = tested on: ragweed (common ragweed, Ambrosia elatior); assay: Test A postemergence; settings: for Ragweed plant response rating: 125 g ai/ha, postemergence, visual injury rating on 0 to 100 scale (0 no effect, 100 complete control), approx. 10 d; for Plant response rating, Ragweed: Postemergence, 500 g ai/ha, 0 to 100 scale where 0 is no effect and 100 is complete control
From the text: as §2, §3

Kochia (Kochia scoparia) [15] = assay: Test A postemergence; settings: for Kochia plant response rating: 125 g ai/ha, postemergence, visual injury rating on 0 to 100 scale (0 no effect, 100 complete control), approx. 10 d; for Plant response rating, Kochia: Postemergence, 500 g ai/ha, 0 to 100 scale where 0 is no effect and 100 is complete control
From the text: as §2, §3

[16] = tested on: ryegrass, Italian (Italian ryegrass, Lolium multiflorum); assay: Test A postemergence; settings: for Ryegrass, Italian plant response rating: 125 g ai/ha, postemergence, visual injury rating on 0 to 100 scale (0 no effect, 100 complete control), approx. 10 d; for Plant response rating, Ryegrass, Italian: Postemergence, 500 g ai/ha, 0 to 100 scale where 0 is no effect and 100 is complete control
From the text: as §2, §3

[17] = tested on: barnyardgrass (Echinochloa crus-galli); assay: Test A postemergence; settings: for Barnyardgrass plant response rating: 125 g ai/ha, visual injury rating on 0 to 100 scale (0 no effect, 100 complete control), approx. 10 d; for Plant response rating, Barnyardgrass: 500 g ai/ha
From the text: as §2, §3

[18] = tested on: Galium (catchweed bedstraw, Galium aparine); assay: Test A postemergence; settings: for Galium plant response rating: 125 g ai/ha, postemergence, visual injury rating on 0 to 100 scale (0 no effect, 100 complete control), approx. 10 d; for Plant response rating, Galium: Postemergence, 500 g ai/ha, 0 to 100 scale where 0 is no effect and 100 is complete control
From the text: as §2, §3

[19] = preemergence, 0 to 100 scale (0 no effect, 100 complete control)
[20] = postemergence, 0 to 100 scale, 0 no effect, 100 complete control
[21] = Preemergence, visual injury after approximately 10 d, 0 to 100 scale where 0 is no effect and 100 is complete control
[22] = Postemergence, 0 to 100 scale where 0 is no effect and 100 is complete control

Structure (SMILES) | Plant response rating, Rice (rice (Oryra sativa)) | Plant response rating, Sedge, Umbrella [1] | Plant response rating, Ducksalad [2] | Plant response rating, Barnyardgrass [3] | Foxtail, Giant plant response rating (0 to 100 scale, 0 is no effect, 100 is complete control) ([4]; Preemergence) | Plant response rating, Pigweed [5] | Pigweed plant response rating (0 to 100 scale, 0 is no effect, 100 is complete control) [5] | Plant response rating, Ragweed [6] | Ragweed plant response rating (0 to 100 scale, 0 is no effect, 100 is complete control) [6] | Kochia plant response rating (0 to 100 scale, 0 is no effect, 100 is complete control) (Kochia (Kochia scoparia) [7]; Preemergence) | Plant response rating, Ryegrass, Italian [8] | Ryegrass, Italian plant response rating (0 to 100 scale, 0 is no effect, 100 is complete control) [8] | Barnyardgrass plant response rating (0 to 100 scale, 0 is no effect, 100 is complete control) ([9]; Preemergence) | Foxtail, Giant plant response rating [10] | Plant response rating, Foxtail, Giant [10] | Wheat plant response rating [11] | Plant response rating, Wheat [11] | Corn plant response rating (corn (Zea mays); postemergence) | Blackgrass plant response rating ([12]; postemergence) | Pigweed plant response rating [13] | other results
CCc1ccc(C2CNC(=O)C2C(=O)Nc2cccc(F)c2F)cc1 (stereo not drawn) [Compound 467] | 0 | 0 | 80 | 20 | 100 | 0 | 0 | 30 | 70 | 50 | 0 | 20 | 90 | 40 | 80 | 0 | 30 | 0 | 0 | 0 | Plant response rating, Foxtail, Giant [4, 19]: 90; Plant response rating, Kochia (Kochia (Kochia scoparia) [7]; [19]): 30; Plant response rating, Barnyardgrass [9, 19]: 90; Plant response rating, Corn (corn (Zea mays); [20]): 20; Plant response rating, Blackgrass [12, 20]: 0; Plant response rating, Pigweed [13]: 0; Ragweed plant response rating [14]: 0; Plant response rating, Ragweed [14]: 20; Kochia plant response rating (Kochia (Kochia scoparia) [15]): 0; Plant response rating, Kochia (Kochia (Kochia scoparia) [15]): 0; Ryegrass, Italian plant response rating [16]: 0; Plant response rating, Ryegrass, Italian [16]: 40; Barnyardgrass plant response rating ([17]; postemergence): 80; Plant response rating, Barnyardgrass [17, 20]: 90; Galium plant response rating [18]: 0; Plant response rating, Galium [18]: 0
O=C1NCC(c2c(F)cccc2F)C1C(=O)Nc1ccccc1F (racemic) [Compound 515] | 0 | 0 | 0 | 0 | 70 | 0 | 0 | 0 | 0 | 0 | 0 | 0 | 0 | 0 | 0 | 0 | 0 | 0 | 0 | 0 | Plant response rating, Foxtail, Giant [4, 21]: 0; Plant response rating, Kochia (Kochia (Kochia scoparia) [7]; [21]): 0; Plant response rating, Barnyardgrass [9, 21]: 0; Plant response rating, Corn (corn (Zea mays); [22]): 0; Plant response rating, Blackgrass [12, 22]: 0; Plant response rating, Pigweed [13]: 0; Ragweed plant response rating [14]: 0; Plant response rating, Ragweed [14]: 0; Kochia plant response rating (Kochia (Kochia scoparia) [15]): 0; Plant response rating, Kochia (Kochia (Kochia scoparia) [15]): 0; Ryegrass, Italian plant response rating [16]: 0; Plant response rating, Ryegrass, Italian [16]: 0; Barnyardgrass plant response rating ([17]; postemergence): 0; Plant response rating, Barnyardgrass [17, 22]: 20; Galium plant response rating [18]: 0; Plant response rating, Galium [18]: 0
